Test results reported in patent EP4509145A1, “PSMA THERANOSTIC COMPOUNDS ASSEMBLED WITH TETRAZINE-TRANS-CYCLOOCTENE LIGATION” (University of Copenhagen, priority 2023, dated 2025).
Like-named read-outs stand apart in the source and are kept apart here.

Assays:
[1] = in vivo PET imaging in rats of [^18F]-labeled PSMA derivatives; details: healthy rats, i.v., 90-min PET acquisition (Figure 15)
Method: Long-Evans female rats weighing 200 - 300 g (Charles River, Calco, Italy), were housed in a cage of 2-3 rats per cage and kept in a climate-controlled facility with a 12-hr light/dark cycle. The cages had environmental enrichment (nest box, biting stick). All rats were fed ad libitum with commercial breeding diet (1310 FORTI-Avlsfoder, Brogaarden, Altromin International) and had free access to water. All the experiments were performed in accordance with the European Commission's Directive 2010/63/EU, FELASA and ARRIVE guidelines for animal research and, with approval from The Danish Council for Animal Ethics (license numbers 2017-15-0201-01283 and 2017-15-0201-01375) together with the Department of Experimental Medicine, University of Copenhagen.
The scans were performed on the Siemens HRRT (High-Resolution Research Tomography) (CPS Innovations/Siemens, Malvern, PA, USA). On the day of experiment, the rats were weighed and then transported to the scanner at least 2 h before the scan. Anesthesia was induced using 3% isoflurane in oxygen flow. All rats were placed in a 2 × 2 custom made rat holder, enabling simultaneous scanning of four rats 17-19. While in the custom-made rat holder, the rats were kept under anesthesia with a constant flow of isoflurane (-2% isoflurane in oxygen). […]

LNCaP cells = assay: internalization assay (surface binding and internalization, with and without 2-PMPA block); assay type: cell-based; details: for Cell surface / Internalized: n = 4; for Cell surface blocked / Internalized blocked: with 2-PMPA 500 µM/well
Method: Poly-L-Lysine (300 µL of a 0.01% w/v in H2O) is added to each well of a 24-well plate (Greiner Bio). The plate is left at room temperature for 20-30 minutes. Afterwards, the poly-L-lysine solution is removed, and the wells washed with 500 µL of PBS. Afterwards, 1 mL of LNCaP cells suspension is placed in each well to obtain 10^5 cells/well. The 24-well plates are left in the incubator overnight until the start of the internalisation experiment. Subsequently, the previously plated cells were incubated at 37 °C with the selected ^18 F-labelled PSMA derivative in 250 µL growth medium for 45 min (c = 32 nM). For the determination of specific uptake, 2-PMPA was added into half of the wells in an excess concentration of 500 µM/well. After incubation, cellular uptake was interrupted by removing the medium and washing the cells with ice-cold PBS (3 × 1 mL). The surface bound radioactivity was removed by washing with 50 mM glycine (pH 2.8, 2 × 500 µL). Finally, the internalized fraction was determined by lysis of the cells with 0.3 M NaOH (1 × 500 µL). Fractions collected from the surface bound activity and lysates were collected and measured in a gamma counter. All counts were normalized to the starting activity and specific surface binding as well as specific internalization were determined by subtracting the non-specific binding obtained from the wells treated with 2-PMPA. Results were calculated and expressed as %AA/10^5 cells (% applied activity/105 cells, n = 4). [^68Ga]-PSMA617 was selected as a reference to compare internalization values. The experiment was conducted two times on different compounds. PSMA-617 was used as a reference and internal control for both experiments. […] The higher internalization could have a big impact on the therapeutic effect of such molecules.

PSMA = molecular target: T1, PSMA (Rattus norvegicus, UniProt P70627); assay: in vitro autoradiography competition assay on rat brain slices against [^111In]In-PSMA-617; assay type: binding
T1 construct: tissue Taconic Biosciences (rats); host or cells: rat brain, sagittal slices containing midbrain
T1 sequence (P70627 whole entry): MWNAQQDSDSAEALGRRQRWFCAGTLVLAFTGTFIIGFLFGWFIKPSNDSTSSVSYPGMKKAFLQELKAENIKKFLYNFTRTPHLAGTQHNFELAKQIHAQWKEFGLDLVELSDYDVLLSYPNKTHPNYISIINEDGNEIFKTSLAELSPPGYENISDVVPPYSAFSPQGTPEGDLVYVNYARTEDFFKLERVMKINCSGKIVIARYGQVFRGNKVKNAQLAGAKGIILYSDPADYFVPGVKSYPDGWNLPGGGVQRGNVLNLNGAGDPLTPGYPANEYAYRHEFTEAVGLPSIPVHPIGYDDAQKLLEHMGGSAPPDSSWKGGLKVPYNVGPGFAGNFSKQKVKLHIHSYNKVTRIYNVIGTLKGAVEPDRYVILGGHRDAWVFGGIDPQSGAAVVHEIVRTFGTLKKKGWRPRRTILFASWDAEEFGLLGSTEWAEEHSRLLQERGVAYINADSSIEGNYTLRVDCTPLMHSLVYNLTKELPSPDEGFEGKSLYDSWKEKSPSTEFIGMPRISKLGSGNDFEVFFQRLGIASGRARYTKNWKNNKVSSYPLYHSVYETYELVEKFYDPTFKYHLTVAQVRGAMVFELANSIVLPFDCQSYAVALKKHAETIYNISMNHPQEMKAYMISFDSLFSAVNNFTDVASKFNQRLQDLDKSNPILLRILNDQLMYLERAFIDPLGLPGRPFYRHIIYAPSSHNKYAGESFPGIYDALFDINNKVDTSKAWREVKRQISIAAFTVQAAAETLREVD
Method: This method provided [^111In]-PSMA-617 in >95% radiochemical yield, as determined by reverse-phase HPLC.
Rat brain slices were obtained from female Sprague-Dawley rats (weight~250g; Taconic Biosciences). The rats were sacrificed by decapitation, brains were extracted, frozen at -80 °C and stored at the same temperature. To prepare slices for autoradiography, brains were cut into halves along the sagittal symmetry plane. Each half was mounted, lateral side up, on the cryostat sample holder pretreated by Tissue-Tek OCT compound and fixed by freezing in the cryostat. […]
For competition assay, the slides were incubated with 2 nM [^111In]In-PSMA-617 and increasing concentrations (0.1-30 nM) of investigated PSMA derivatives for the same amount of time in the same assay buffer. Non-specific binding was determined by adding 5 µM 2-(phosphonomethyl)pentanedioic acid (PMPA) to [^111In]In-PSMA-617 solutions. […]
The screens were then read by a Cyclone Plus storage phosphor system (Packard Instruments Co). Quantification of readings was done with Optiquant software (version 3.00, Packard Instruments Co). Namely, elliptic regions of interest (ROIs) encompassing the midbrain and cerebellar nuclei were drawn inside the brain slice images, while circular ROIs were drawn around calibration curve spots, and average exposure was calculated for both ROI categories. […]

[2] = first experiment, LNCaP, 37 °C, 45 min, c = 32 nM
[3] = second experiment ([^68Ga] compounds), LNCaP, 37 °C, 45 min, c = 32 nM
[4] = second experiment ([^68Ga] compounds)

| SMILES | excretion route [1] | Cell surface (LNCaP cells; [2]) | Internalized (LNCaP cells; [2]) | Cell surface blocked (LNCaP cells; [2]) | Internalized blocked (LNCaP cells; [2]) | Ki (PSMA; competition with 2 nM [^111In]In-PSMA-617, 1.5 h, Ki from IC50 by Cheng-Prusoff, mean ± SD, number of determinations in parentheses, read-out: Affinity (Ki)) | Ki (PSMA; read-out: Affinity (Ki), competition with 2 nM [^111In]In-PSMA-617, 1.5 h, Ki from IC50 by Cheng-Prusoff, mean ± SD, number of determinations in parentheses) | Cell surface (LNCaP cells; [3]) | Internalized (LNCaP cells; [3]) | Cell surface blocked (LNCaP cells; [4]) | Internalized blocked (LNCaP cells; [4]) |
| --- | --- | --- | --- | --- | --- | --- | --- | --- | --- | --- | --- |
| O=C(O)CC[C@H](NC(=O)N[C@@H](CCCCNC(=O)[C@H](Cc1ccc2ccccc2c1)NC(=O)[C@H]1CC[C@H](CNC(=O)CN2C(=O)c3cc4nc5c(nc4cc3C2=O)CCc2c(cnnc2-c2ccc(OCCF)cc2)CC5)CC1)C(=O)O)C(=O)O [[^18F]16, PSMA-NH-T4CO-FTz] | excreted mainly through the liver | 0.36 ± 0.03 %AA/10^5 cells | 1.98 ±0.17 %AA/10^5 cells | 0.09 ± 0.01 %AA/10^5 cells | 0.78 ± 0.11 %AA/10^5 cells | – | – | – | – | – | – |
| N=C(N)NCCCC(NC(=O)CN1C(=O)c2cc3nc4c(nc3cc2C1=O)CCc1c(cnnc1-c1ccc(OCC[18F])cc1)CC4)C(=O)NC(CCC(=O)O)C(=O)NC(CCCNC(=N)N)C(=O)NC(CCC(=O)O)C(=O)NC(CCCNC(=N)N)C(=O)NC(CCC(=O)O)C(=O)NCC1CCC(C(=O)NC(Cc2ccc3ccccc3c2)C(=O)NCCCCC(NC(=O)NC(CCC(=O)O)C(=O)O)C(=O)O)CC1 (centres unmarked) [[^18F]30, PSMA-NH-AAAAAA-T4CO-FTz] | – | 0.64 ± 0.10 %AA/10^5 cells | 0.54 ± 0.06 %AA/10^5 cells | 0.08 ± 0.01 %AA/10^5 cells | 0.07 ± 0.01 %AA/10^5 cells | 3.1 ± 0.28 nM | – | – | – | – | – |
| N=C(N)NCCCC(NC(=O)CN1C(=O)c2cc3nc4c(nc3cc2C1=O)CCc1c(cnnc1-c1ccc(OCC[18F])cc1)CC4)C(=O)NC(CCCNC(=N)N)C(=O)NC(CCCNC(=N)N)C(=O)NCC1CCC(C(=O)NC(Cc2ccc3ccccc3c2)C(=O)NCCCCC(NC(=O)NC(CCC(=O)O)C(=O)O)C(=O)O)CC1 (centres unmarked) [[^18F]40, PSMA-3Arg-NH-T4CO-FTz] | – | 5.15 ± 0.87 %AA/10^5 cells | 4.53 ± 0.55 %AA/10^5 cells | 4.70 ± 1.05 %AA/10^5 cells | 4.10 ± 0.65 %AA/10^5 cells | – | 47.5 nM | – | – | – | – |
| O=C(O)CC[C@H](NC(=O)N[C@@H](CCCCNC(=O)[C@H](Cc1ccc2ccccc2c1)NC(=O)[C@H]1CC[C@H](CNC(=O)CN2CCN(CC(=O)O)CCN(CC(=O)O)CCN(CC(=O)O)CC2)CC1)C(=O)O)C(=O)O [[^68Ga]-PSMA-617, vipivotide tetraxetan, metal not drawn, reference compound] | – | 0.36 ± 0.03 %AA/10^5 cells | 0.27± 002 %AA/10^5 cells | 0.03± 0.01 %AA/10^5 cells | 0.03 ± 0.01 %AA/10^5 cells | – | – | 0.36 ± 0.03 %AA/10^5 cells | 0.13± 001 %AA/10^5 cells | 0.03± 0.01 %AA/10^5 cells | 0.02 ± 0.01 %AA/10^5 cells |
